Consider 3 compounds from publication PMC9282638, “A Suite of Activity-Based Probes To Dissect the KLK Activome in Drug-Resistant Prostate Cancer” (Journal of the American Chemical Society, 2021).

Experiment [1] relates to KLK activome (KLK2, KLK3, KLK14) in LNCaP-K14 cells. The experiment can be described thus: Residual KLK activity in conditioned media of bABP-treated LNCaP-K14 cells, read out with fABP cocktail. In kind it is cell-based, human. The note with it: 1 μM bABP co-incubated with 10 nM DHT and 200 nM Dox for 48 h. From the text: The data presented above provide evidence that KLK activity in PCa is regulated by the AR at a level beyond simple changes in expression and raise the possibility that KLK activities may be actionable targets for therapeutic intervention at different disease stages, in particular during PCa metastasis to bone. However, KLKs are predicted to form complex proteolytic networks and it is often not clear which protease(s) should be inhibited for maximum phenotypic response in a particular disease setting. […] To enable dissection of the PCa KLK activome directly in LNCaP cells, we further expanded the KLK probe toolbox by synthesizing KLK2_fABP (42) and KLK14_fABP (43) (Figure 6A and Figure S2), fluorescent ABP (fABP) analogues of KLK2_bABP and KLK14_bABP bearing dyes fluorescing at discrete wavelengths, which retain excellent potency and selectivity for KLK2 and KLK14, respectively (Figure S25). KLK2_fABP and KLK14_fABP were combined with KLK3-selective fABP 21 (KLK3_fABP) in an “fABP cocktail” to a final concentration of 1 μM each and incubated for 20 min with CM obtained from LNCaP-WT, LNCaP-mK14, or LNCaP-K14 cells following 48 h treatment with 10 nM DHT to enable simultaneous multicolor readout of KLK2, KLK3, and KLK14 activity. […] However, upon Dox-induced KLK14 expression in DHT-treated LNCaP-K14 cells a significant increase in the activity of all three KLKs was evident (see Figure 6B and Figure S26 for gel quantification). […] Residual KLK activity in CM was then assessed using the fABP cocktail (Figure 6B).
Figure 6 Dissecting the KLK activome in LNCaP cells. […] (B) KLK activity profiling by in-gel fluorescence of conditioned media obtained from LNCaP-WT, LNCaP-mK14, and LNCaP-K14 cells following treatment with DHT (10 nM), Dox (100 ng/mL), and the appropriate biotinylated ABP using fluorescent ABPs 20, 42 and 43. See Figure S26 for blot and gel quantification. […] Cultures were incubated for a further 24 h before the number of migrating cells was quantified.

The test system of a further experiment is LNCaP-K14 cells. The experiment can be described thus: Transwell cell migration assay. The note with it: 1 μM ABP, 24 h; KLK14 expression induced with Dox, 10 nM DHT. In kind it is cell-based, human. On the procedure:
Figure 6 Dissecting the KLK activome in LNCaP cells. (A) Structures of fluorescent ABPs 42, 20, and 43 for KLK2, KLK3, and KLK14, respectively. (B) KLK activity profiling by in-gel fluorescence of conditioned media obtained from LNCaP-WT, LNCaP-mK14, and LNCaP-K14 cells following treatment with DHT (10 nM), Dox (100 ng/mL), and the appropriate biotinylated ABP using fluorescent ABPs 20, 42 and 43. See Figure S26 for blot and gel quantification. (C) Assessment of KLK activity inhibition on LNCaP cell migration. LNCaP-K14 cells were cultured in serum-free RPMI media supplemented with 10 nM DHT ± Dox (100 ng/mL) for 24 h. Cells were added to transwell inserts (100 000 cells in 100 μL of serum-free RPMI), and after 4 h the appropriate ABP was added. Cultures were incubated for a further 24 h before the number of migrating cells was quantified. […]
each library member was 50 μM and the total reaction volume was 50 μL. The excitation wavelength was 355 nm, and the emission wavelength was 460 nm. An amount of 1 μL of each HyCoSuL peptide was added into a well in a 96-well plate containing 24 μL of KLK buffer.
Next, 25 μL of the active KLK enzyme was added to each well and substrate hydrolysis was recorded in kinetic mode at RT for at least 10 min. The linear portion of each progress curve was used to calculate relative fluorescence units per second (RFUs-1). […] Specificity was calculated by normalizing RFUs-1 to the highest value, which was set at 100 %. […]
Determination of kcat/KM: The KLK2 substrate and KLK14 substrate were serially diluted in the appropriate KLK assay buffer and 25 μL was added to the wells of a 96-well plate. Next, 25 μL of KLK2 (1.5 nM) or KLK14 (75 pM) was added to each well containing the substrate and the enzyme-substrate reaction was monitored for at least 10 min. The linear portion of each progress curve was used to calculate relative fluorescence units per second (RFUs-1).
KM, kcat, and kcat/KM parameters were determined by nonlinear regression in GraphPad Prism 5 (GraphPad Software). […]

Consider `CCC[C@H](NC(=O)[C@H](CCC(N)=O)NC(=O)[C@H](CC(N)=O)NC(=O)CCCCCNC(=O)CCCC[C@@H]1SC[C@@H]2NC(=O)N[C@@H]21)C(=O)NC(c1ccc(C(N)=O)cc1)P(=O)(Oc1ccccc1)Oc1ccccc1` (stereo partly drawn) [compound 20], for which, in experiment [1], the “effect on activity of the other KLKs” value is reported as “does not affect the activity of other KLKs”. Moreover, the “effect on number of migrating cells” value in the experiment on LNCaP-K14 cells was “no significant effect”.
On the same counts, the results for `CC(C)(C)C(NC(=O)CCCCCNC(=O)CCCCC1SCC2NC(=O)NC21)C(=O)NC(CCN)C(=O)NC(Cc1ccc(O)cc1)C(=O)NC(c1ccc(NC(=N)N)cc1)P(=O)(Oc1ccccc1)Oc1ccccc1` (stereo not drawn) [compound 31, Tle-Dab-Tyr-Arg] are “does not affect the activity of other KLKs” and “no significant effect”.
On the same counts, the results for `CCC(NC(=O)C(CCN)NC(=O)C(Cc1ccc2ccccc2c1)NC(=O)CCCCCNC(=O)CCCCC1SCC2NC(=O)NC21)C(=O)NC(c1ccc(NC(=N)N)cc1)P(=O)(Oc1ccccc1)Oc1ccccc1` (stereo not drawn) [compound 39, 2Nal-Dab-Abu-Arg] are “significant decrease” and “nullified”.
